Columns and labels:
A₂ receptor = biological target: T1, A₂ receptor (Rattus norvegicus, UniProt P30543); experiment: Adenosine A₂ receptor binding test (³H-CGS 21680 binding); settings: [^3H]CGS 21680 was used, rat corpus striatum, read-out: A2 Receptor Inhibition (%); for inhibition at 1 µM: 10^-6M; for inhibition at 0.1 µM: 10^-7M
T1 construct: from tissue; host or cells: rat corpus striatum membrane preparation
Method: The similar procedure as in the above-described adenosine A₁ receptor binding test was repeated using rat corpus striatum to obtain the final precipitate of the tissue thereof. The precipitate was suspended in 50 mM Tris HCl buffer containing 10 mM magnesium chloride and 0.02 unit/mg tissue of adenosine deaminase (manufactured by Sigma Co.) to give a tissue concentration of 5 mg (wet weight)/ml.
The similar procedure as above was repeated to determine the radioactivity bound to the A₂ receptors using 50 µl of CGS 21680 labeled with tritium [³H-2-[p-(2-carboxyethyl)-phenethylamino]-5'-(N-ethylcarboxamide)adenosine: 40 Ci/mmol, manufactured by New England Nuclear Co. (J. Pharmacol. Exp. Ther., 251, 888 (1989)] (final concentration: 4.0 nM) in place of 50 µl of the mixture of N-ethylcarboxamidoadenosine labeled with tritium (³H-NECA: 26 Ci/mmol, manufactured by Amersham Co.) (final concentration: 3.8 nM) and cyclopentyladenosine (CPA, manufactured by Sigma Co.) (final concentration: 50 nM).
The inhibition rate of the test compound against the binding of A₂ receptors (³H-CGS 21680 binding) was calculated by the following equation: [formula] [Notes] • 1. "B" means the amount of radioactivity of ³H-CGS 21680 bound in the presence of a test compound at a concentration shown in Table 4. • 2. "T" means the amount of radioactivity of ³H-CGS 21680 bound in the absence of a test compound. • 3. "N" means the amount of radioactivity of ³H-CGS 21680 bound in the presence of 100 µM CPA.

dd-strain male mice = experiment: Acute toxicity test (minimum lethal dose, oral); format: in vivo; settings: oral administration, three mice per group, mortality seven days after administration
Method: Test compounds were orally administered to groups of dd-strain male mice weighing 20 ± 1 g, each group consisting of three mice. Seven days after the administration, minimum lethal dose (MLD) of each compound was determined by observing the mortality.

T1 sequence (P30543 whole entry): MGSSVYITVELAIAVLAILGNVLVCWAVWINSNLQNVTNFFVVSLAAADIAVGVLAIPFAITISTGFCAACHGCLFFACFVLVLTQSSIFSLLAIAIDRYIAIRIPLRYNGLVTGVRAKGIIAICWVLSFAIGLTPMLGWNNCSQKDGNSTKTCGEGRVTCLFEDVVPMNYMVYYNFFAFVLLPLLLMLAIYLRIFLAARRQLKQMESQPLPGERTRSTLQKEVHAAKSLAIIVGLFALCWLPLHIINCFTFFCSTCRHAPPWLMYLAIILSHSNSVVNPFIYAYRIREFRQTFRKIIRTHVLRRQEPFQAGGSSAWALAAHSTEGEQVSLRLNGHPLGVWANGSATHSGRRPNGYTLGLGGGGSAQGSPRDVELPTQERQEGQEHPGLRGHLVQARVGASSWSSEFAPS

| SMILES | inhibition at 1 µM (A₂ receptor) | inhibition at 0.1 µM (A₂ receptor) | MLD (dd-strain male mice) |
| --- | --- | --- | --- |
| CCn1c(=O)c2[nH]c(/C=C/c3cccc(OC)c3)nc2n(CC)c1=O [Compound 39, (E)-1,3-Diethyl-8-(3-methoxystyryl)xanthine] | 88% | 80% | > 100 mg/kg |
| CCCCOc1ccc(/C=C/c2nc3c([nH]2)c(=O)n(CC)c(=O)n3CC)cc1 [Compound 41, (E)-8-(4-Butoxystyryl)-1,3-diethylxanthine] | 52% | 27% | > 100 mg/kg |
| CCCCOc1ccc(/C=C/c2nc3c(c(=O)n(CC)c(=O)n3CC)n2C)cc1 [Compound 42, (E)-8-(4-Butoxystyryl)-1,3-diethyl-7-methylxanthine] | 87% | 46% | > 100 mg/kg |
| CCn1c(=O)c2[nH]c(/C=C/c3ccc(C)cc3)nc2n(CC)c1=O [Compound 43, (E)-1,3-Diethyl-8-(4-methylstyryl)xanthine] | 70% | 68% | > 100 mg/kg |
| CCn1c(=O)c2[nH]c(/C=C/c3ccc(OC)c(C)c3)nc2n(CC)c1=O [Compound 47, (E)-1,3-Diethyl-8-(4-methoxy-3-methylstyryl)xanthine] | 92% | 67% | > 100 mg/kg |
| CCn1c(=O)c2c(nc(/C=C/c3ccc(OC)c(C)c3)n2C)n(CC)c1=O [Compound 48, (E)-1,3-Diethyl-8-(4-methoxy-3-methylstyryl)-7-methylxanthine] | 99% | 83% | > 100 mg/kg |
| CCn1c(=O)c2c(nc(/C=C/c3ccc(C(F)(F)F)cc3)n2C)n(CC)c1=O [Compound 74, (E)-1,3-Diethyl-7-methyl-8-(4-trifluoromethylstyryl)xanthine] | 87% | 59% | > 300 mg/kg |
| CCn1c(=O)c2[nH]c(/C=C/c3ccc(Br)cc3)nc2n(CC)c1=O [Compound 77, (E)-8-(4-Bromostyryl)-1,3-diethylxanthine] | 54% | 54% | > 100 mg/kg |
| CCn1c(=O)c2[nH]c(/C=C/c3cccc(OC(F)(F)F)c3)nc2n(CC)c1=O [Compound 79, (E)-1,3-Diethyl-8-(3-trifluoromethoxystyryl)xanthine] | 79% | 53% | > 100 mg/kg |
| CCn1c(=O)c2c(nc(/C=C/c3cccc(OC(F)(F)F)c3)n2C)n(CC)c1=O [Compound 80, (E)-1,3-Diethyl-7-methyl-8-(3-trifluoromethoxystyryl)xanthine] | 86% | 72% | > 100 mg/kg |
| CCn1c(=O)c2[nH]c(/C=C/c3ccc(OCOC)cc3)nc2n(CC)c1=O [Compound 81, (E)-1,3-Diethyl-8-(4-methoxymethoxystyryl)xanthine] | 95% | 78% | > 100 mg/kg |
| CCn1c(=O)c2[nH]c(/C=C/c3ccc(F)cc3)nc2n(CC)c1=O [Compound 83, (E)-1,3-Diethyl-8-(4-fluorostyryl)xanthine] | 70% | 75% | > 100 mg/kg |
| CCn1c(=O)c2[nH]c(/C=C/c3cc(F)cc(F)c3)nc2n(CC)c1=O [Compound 87, (E)-8-(3,5-Difluorostyryl)-1,3-diethylxanthine] | 66% | 59% | > 100 mg/kg |
| CCn1c(=O)c2[nH]c(/C=C/c3cccc([N+](=O)[O-])c3)nc2n(CC)c1=O [Compound 89, (E)-1,3-Diethyl-8-(3-nitrostyryl)xanthine] | 78% | 59% | > 100 mg/kg |
| CCn1c(=O)c2[nH]c(/C=C/c3cccc(Br)c3)nc2n(CC)c1=O [Compound 91, (E)-8-(3-Bromostyryl)-1,3-diethylxanthine] | 51% | 9% | > 100 mg/kg |
| CCn1c(=O)c2[nH]c(/C=C/c3cccc(C(F)(F)F)c3)nc2n(CC)c1=O [Compound 93, (E)-1,3-Diethyl-8-(3-trifluoromethylstyryl)xanthine] | 85% | 53% | > 100 mg/kg |
| CCn1c(=O)c2c(nc(/C=C/c3cccc(C(F)(F)F)c3)n2C)n(CC)c1=O [Compound 94, (E)-1,3-Diethyl-7-methyl-8-(3-trifluoromethylstyryl)xanthine] | 98% | 71% | > 100 mg/kg |
| CCn1c(=O)c2[nH]c(/C=C/c3cc4c(cc3Br)OCO4)nc2n(CC)c1=O [Compound 95, (E)-8-(2-Bromo-4,5-methylenedioxystyryl)-1,3-diethylxanthine] | 89% | 75% | > 100 mg/kg |
| CCn1c(=O)c2c(nc(/C=C/c3cc4c(cc3Br)OCO4)n2C)n(CC)c1=O [Compound 96, (E)-8-(2-Bromo-4,5-methylenedioxystyryl)-1,3-diethyl-7-methylxanthine] | 101% | 84% | > 100 mg/kg |
| CCn1c(=O)c2[nH]c(/C=C/c3ccccc3F)nc2n(CC)c1=O [Compound 97, (E)-1,3-Diethyl-8-(2-fluorostyryl)xanthine] | 87% | 66% | > 100 mg/kg |
| CCn1c(=O)c2c(nc(/C=C/c3ccccc3F)n2C)n(CC)c1=O [Compound 98, (E)-1,3-Diethyl-8-(2-fluorostyryl)-7-methylxanthine] | 95% | 92% | > 100 mg/kg |
| CCn1c(=O)c2c(nc(/C=C/c3ccc(-c4ccccc4)cc3)n2C)n(CC)c1=O [Compound 101, (E)-1,3-Diethyl-7-methyl-8-(4-phenylstyryl)xanthine] | 76% | 36% | > 100 mg/kg |
| CCn1c(=O)c2[nH]c(/C=C/c3ccc(OC)c(F)c3)nc2n(CC)c1=O [Compound 102, (E)-1,3-Diethyl-8-(3-fluoro-4-methoxystyryl)xanthine] | 94% | 70% | > 100 mg/kg |
| CCn1c(=O)c2c(nc(/C=C/c3ccc(F)c(Cl)c3)n2C)n(CC)c1=O [Compound 105, (E)-8-(3-Chloro-4-fluorostyryl)-1,3-diethyl-7-methylxanthine] | 96% | 76% | > 100 mg/kg |
| CCn1c(=O)c2[nH]c(/C=C/c3cc(OC)c4c(c3)OCO4)nc2n(CC)c1=O [Compound 106, (E)-1,3-Diethyl-8-(3-methoxy-4,5-methylenedioxystyryl)xanthine] | 94% | 83% | > 100 mg/kg |
| CCn1c(=O)c2[nH]c(/C=C/c3cccc(F)c3C)nc2n(CC)c1=O [Compound 108, (E)-1,3-Diethyl-8-(3-fluoro-2-methylstyryl)xanthine] | 94% | 87% | > 100 mg/kg |
| CCn1c(=O)c2c(nc(/C=C/c3ccc(OCCCCBr)cc3)n2C)n(CC)c1=O [Compound 114, (E)-8-[4-(4-Bromobutoxy)styryl]-1,3-diethyl-7-methylxanthine] | 87% | 23% | > 100 mg/kg |
| CCn1c(=O)c2c(nc(/C=C/c3ccc(OCCCCN=[N+]=[N-])cc3)n2C)n(CC)c1=O [Compound 115, (E)-8-[4-(4-Azidobutoxy)styryl]-1,3-diethyl-7-methylxanthine] | 79% | 34% | > 100 mg/kg |
| CCn1c(=O)c2c(nc(/C=C/c3cccc(Oc4ccccc4)c3)n2C)n(CC)c1=O [Compound 120, (E)-1,3-Diethyl-7-methyl-8-(3-phenoxystyryl)xanthine] | 75% | 89% | > 100 mg/kg |
